# Reference: patent publication US20080311594A1, “USE OF FIBROBLAST GROWTH FACTOR 7 (Fgf7) AND OF THE RECEPTOR Fgfr2b AS BIOMARKERS” (priority 2007, published 2008)
# Where two headings read alike, the source gives them in different places.
# T1: progesterone receptor (Homo sapiens, UniProt P06401)
# T1 sequence (P06401 1-933): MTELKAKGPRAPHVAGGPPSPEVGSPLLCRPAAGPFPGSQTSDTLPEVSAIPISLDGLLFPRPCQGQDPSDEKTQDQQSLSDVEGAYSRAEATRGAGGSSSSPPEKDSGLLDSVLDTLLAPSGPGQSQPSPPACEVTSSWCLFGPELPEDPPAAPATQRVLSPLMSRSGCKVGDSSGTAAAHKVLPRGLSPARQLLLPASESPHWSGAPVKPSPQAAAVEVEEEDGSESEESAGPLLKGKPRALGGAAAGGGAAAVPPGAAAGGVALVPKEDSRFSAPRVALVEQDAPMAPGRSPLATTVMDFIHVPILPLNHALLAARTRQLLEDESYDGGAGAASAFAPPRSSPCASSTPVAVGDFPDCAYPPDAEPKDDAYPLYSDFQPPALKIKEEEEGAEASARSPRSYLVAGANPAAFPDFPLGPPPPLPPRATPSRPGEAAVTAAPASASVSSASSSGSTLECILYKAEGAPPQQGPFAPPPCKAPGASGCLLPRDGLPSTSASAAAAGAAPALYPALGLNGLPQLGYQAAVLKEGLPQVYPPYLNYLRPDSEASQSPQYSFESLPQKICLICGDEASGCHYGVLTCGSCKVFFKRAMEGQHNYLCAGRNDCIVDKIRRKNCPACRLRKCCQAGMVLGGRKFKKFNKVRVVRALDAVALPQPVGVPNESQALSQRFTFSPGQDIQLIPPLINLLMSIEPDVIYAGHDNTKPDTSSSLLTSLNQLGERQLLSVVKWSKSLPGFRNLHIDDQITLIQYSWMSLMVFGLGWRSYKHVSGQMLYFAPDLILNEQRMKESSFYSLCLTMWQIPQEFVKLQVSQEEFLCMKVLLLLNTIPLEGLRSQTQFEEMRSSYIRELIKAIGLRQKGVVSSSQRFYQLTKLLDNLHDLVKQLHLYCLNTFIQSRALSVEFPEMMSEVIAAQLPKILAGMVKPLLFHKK
# B1: Fgf7: Fibroblast growth factor 7, secreted glycoprotein; recombinant Fgf7 added to culture medium (protein, UniProt P21781 32-194, looked up)
# Fibroblast growth factor 7: CNDMTPEQMATNVNCSSPERHTRSYDYMEGGDIRVRRLFCRTQWYLRIDKRGKVKGTQEMKNNYNIMEIRTVAVGIVAIKGVESEFYLAMNKEGKLYAKKECNEDCNFKELILENHYNTYASAKWTHNGGEMFVALNQKGIPVRGKKTKKEQKTAHFLPMAIT
# Columns and labels:
# MXT-M3 tumour = MXT-M3 tumour model in mice, tumour weight at end of test; type: in vivo
# Description: For the test, an MXT-M3 tumour which was no longer strictly hormone-dependent was transplanted into mice.
# The MXT(+) tumour model was induced in C57BLxDBA2F1 mice by intraperitoneal administration of a urethane solution. The developing mammary tumour could be transplanted further to mice with the same genetic background (syngeneic) and is still an established model. The MXT(+) model is distinguished very particularly by the fact that the tumours express both ER and PR in physiological concentrations. Although there are other hormone receptor-positive tumour models, frequently ER and PR are not functional therein and show no translocation from the cytoplasm into the nucleus after stimulation. Nor is it possible to show growth inhibition by hormone ablation here. These models are unsuitable for investigating antihormonal substances (Watson, Medina et al. 1977).
# At the end of the test, the animals were sacrificed and the tumours were removed, and then the weight of the tumours was determined. The variation in the tumour weights is high in each group. The average tumour weights in the vehicle control group (427 mg) was 2.8 times higher than in the ovariectomized group (155 mg) and 2.2 times as high as in the group treated with 11β-(4-acetylphenyl)-17β-hydroxy-17α-(1,1,2,2,2-pentafluoroethyl)estra-4,9-dien-3-one (192 mg).
# (§1) A limit was set in the ovariectomized group and that treated with 11β-(4-acetyl-phenyl)-17β-hydroxy-17α-(1,1,2,2,2-pentafluoroethyl)estra-4,9-dien-3-one: tumours having a weight higher than 100 mg were assessed as non-responders, and tumours with a weight less than 100 mg were classified as responders.
# It was possible in the investigation of the tumour RNA of the in vivo experiment from Example 1 to identify biomarker candidates. To confirm these potential candidates, an independent animal experiment was carried out with the same study design, increasing the number of animals from ten to 20 per group. At the end of the test, the tumours were removed, the tumour weight was determined and the tumours were stored at −80° C. until RNA was isolated. The results are depicted in FIG. 2/5.
# (§2) Exactly as in Test 1, the limit for response to the therapy and the non-response was set here at a tumour weight of 100 mg. The five largest tumours were selected from the control group. The RNA was isolated from the tumours, and gene expression of the biomarker candidates was determined.
# T47-D cells = experiment: Proliferation assay of T47-D cells with and without FGF7; type: cell-based, human; conditions: for growth (of maximum control): 10^−11 mol/l; for inhibition at 10 µM: 10^−5 mol/l
# Procedure: The influence of FGF7 on the activity of 11β-(4-acetylphenyl)-17β-hydroxy-17α-(1,1,2,2,2-pentafluoroethyl)estra-4,9-dien-3-one was investigated on T47-D cells. […] 50 ng/ml FGF7 were added to the medium, and the activity of ZK-PRA was determined in a proliferation assay.
# It was thus possible to inhibit growth by 58% through withdrawal of E2.
# T47-D cells proliferate only in the presence of E2, so that E2 ablation serves as check of maximum growth inhibition. In the proliferation test without Fgf7 it was thus possible to achieve a maximum inhibition of almost 60%. On addition of Fgf7 to the medium, the effect was substantially smaller and the inhibition was now only 29%. Fgf7 thus downregulates not only ER and PR, so that the target for antiestrogens and antiprogestagens is lost, but additionally acts per se as growth factor, so that antihormonal effects or ablation of hormones are compensated. Fgf7 is a potent biomarker candidate. […] This was confirmed in an independent, second in vivo experiment. Fgf7 is a unidirectional, paracrine factor which has a local effect, but is nevertheless secreted, so that investigation is required of whether an elevated Fgf7 serum level possibly correlates with a non-response to treatment with 11β-(4-acetylphenyl)-17β-hydroxy-17α-(1,1,2,2,2-pentafluoroethyl)-estra-4,9-dien-3-one.
# Fgf7 [1] = experiment: Gene expression of Fgf7 in MXT tumours, GeneChip (Affymetrix) analysis; type: in vivo, mice; conditions: Example 1, non-responders (>100 mg) vs responders (<100 mg)
# Procedure: (§3) For further gene expression studies, the RNA of selected tumours was isolated and analysed further by GeneChip analyses and real-time PCR:
# (§4) The five largest tumours from the vehicle control group were selected.
# as §1
# Fgfr2 [2] = experiment: Relative expression of Fgfr2 versus 18S rRNA in model cell lines; type: cell-based, human
# Description: Relative Expression of Fgfr2 Versus 18S rRNA in 6 Model Cell Lines […]
# Expression of the receptor for fibroblast growth factor 7 (Fgf7) was not regulated in the sensitive T47-D cells on treatment with ZK-PRA (1.1 times higher on treatment with ZK-PRA). Expression in the ZK-PRA-resistant T47-D without treatment was twice as high as in the sensitive T47-D cells and declined somewhat with ZK-PRA treatment to 1.3 times the value of the untreated sensitive T47-D cells. Expression in all other cells was considerably less both in normal medium and on treatment with ZK-PRA: […]
# Fgf7 [3] = experiment: Gene expression of Fgf7 in MXT tumours, real-time PCR; type: in vivo, mice; conditions: for Real-time regulation ZK-PRA NR versus vehicle control / Real-time regulation ZK-PRA R versus vehicle control: Fgf7; for Real-time regulation ZK-PRA NR versus vehicle control: non-responder tumours; for Real-time regulation ZK-PRA R versus vehicle control: responder tumours
# Procedure: as §3, §4, §1, §2
# progesterone receptor = biological target: T1, progesterone receptor; conditions: Fuhrmann et al., J. Med. Chem. 2000; cited from earlier work
# Fgfr2 [4] = experiment: Gene expression of Fgfr2 in MXT tumours, real-time PCR; type: in vivo, mice; conditions: for Real-time regulation ZK-PRA NR versus vehicle control / Real-time regulation ZK-PRA R versus vehicle control: Fgfr2; for Real-time regulation ZK-PRA NR versus vehicle control: non-responder tumours; for Real-time regulation ZK-PRA R versus vehicle control: responder tumours
# Procedure: as §3, §4, §1, §2
# MCF-7 cells = conditions: recombinant Fgf7 added to the culture medium, Chang et al. 2006; cited from earlier work
# [5] = tested on: progesterone receptor (PR-A, PR-B) in T47-D cells; experiment: Western blot analysis of the progesterone receptor under the influence of FGF7; type: cell-based, human; conditions: Fgf7 20 and 50 ng/ml, 24 h and 72 h
# Procedure: It is reported in the literature that FGF7 downregulates both ER and PR. In order to detect this effect, cells were incubated in medium with various amounts of FGF7 for 24 h and 72 h, and then the PR content was determined.
molecule,measurement,setting,value
"CC(=O)c1ccc([C@H]2C[C@@]3(C)[C@@H](CC[C@@]3(O)C(F)(F)C(F)(F)F)[C@@H]3CCC4=CC(=O)CCC4=C32)cc1 [ZK-PRA, 11β-(4-acetylphenyl)-17β-hydroxy-17α-(1,1,2,2,2-pentafluoroethyl)estra-4,9-dien-3-one]",average tumour weight,"MXT-M3 tumour; Example 1, treated group, end of test",192 mg
same,average tumour weight of vehicle control group relative to treated group,"MXT-M3 tumour; Example 1, vehicle 427 mg",2.2 times
same,average tumour weight,"MXT-M3 tumour; Example 2 confirmation experiment, treated group",215 mg
same,average tumour weight of vehicle control group relative to treated group,"MXT-M3 tumour; Example 2 confirmation experiment, vehicle 577 mg",2.7 times
same,growth (of maximum control),T47-D cells; FGF7 50 ng/ml,114%
same,growth (of maximum control),T47-D cells; without FGF7,114%
same,maximum growth inhibition,"T47-D cells; Fgf7 50 ng/ml in the culture medium, no dose-response relation",about 20%
same,inhibition at 10 µM,"T47-D cells; Homo sapiens, T47D, FGF7 50 ng/ml in the medium, read-out: growth inhibition",24%
same,inhibition at 10 µM,"T47-D cells; Homo sapiens, T47D, without FGF7, maximum control (E2) = 100%, read-out: growth inhibition",42%
same,inhibition at 1 µM,"T47-D cells; Homo sapiens, T47D, 10^−6 mol/l, without FGF7, read-out: growth inhibition",47%
same,inhibition at 0.1 µM,"T47-D cells; Homo sapiens, T47D, 10^−7 mol/l, without FGF7, read-out: growth inhibition",50%
same,growth inhibition,"T47-D cells; next lower concentration after 10^−5 mol/l, FGF7 50 ng/ml",18%
same,activity in the proliferation assay,"T47-D cells; sensitive T47-D cells, without FGF7",good activity
same,Affymetrix regulation ZK-PRA NR versus ZK-PRA R,Fgf7 [1],2.30 (±0.33)
same,Fgfr2 mRNA on treatment compared with untreated T47-D cells,Fgfr2 [2]; BT-474 cells,37 times lower
same,Fgfr2 mRNA on treatment compared with untreated sensitive T47-D cells,Fgfr2 [2]; MCF-7 cells,153 times lower
same,Fgfr2 expression on treatment relative to untreated sensitive T47-D cells,Fgfr2 [2]; ZK-PRA-resistant T47-D cells,1.3 times
same,Fgfr2 expression on treatment compared with T47-D under normal conditions,Fgfr2 [2]; ZR75-1 cells,9.4 times lower
same,Fgfr2 expression on treatment relative to untreated,Fgfr2 [2]; sensitive T47-D cells,1.1 times higher
same,Fgf7 expression in non-responder tumours relative to vehicle controls,Fgf7 [3]; Example 1,3.12 times
same,Fgf7 expression in responder tumours compared with the controls,Fgf7 [3]; Example 1,70%
same,Real-time regulation ZK-PRA NR versus vehicle control,Fgf7 [3]; Example 1,3.12 (±0.68)
same,Real-time regulation ZK-PRA R versus vehicle control,Fgf7 [3]; Example 1,0.69 (±0.38)
same,Real-time regulation ZK-PRA NR versus vehicle control,Fgf7 [3]; Example 2 confirmation,3.25 (±1.91)
same,Real-time regulation ZK-PRA R versus vehicle control,Fgf7 [3]; Example 2 confirmation,1.72 (±0.68)
same,antiprogestational activity,progesterone receptor,high antiprogestational activity
same,"Fgfr2 expression, non-responders vs. control",Fgfr2 [4]; Example 1,55%
same,"Fgfr2 expression, responder tumours vs. control",Fgfr2 [4]; Example 1,30%
same,Real-time regulation ZK-PRA NR versus vehicle control,Fgfr2 [4]; Example 1,0.55 (±0.30)
same,Real-time regulation ZK-PRA R versus vehicle control,Fgfr2 [4]; Example 1,0.30 (±0.07)
same,Real-time regulation ZK-PRA NR versus vehicle control,Fgfr2 [4]; Example 2 confirmation,0.25 (±0.20)
same,Real-time regulation ZK-PRA R versus vehicle control,Fgfr2 [4]; Example 2 confirmation,0.47 (±0.34)
CC/C(=C(\c1ccccc1)c1ccc(OCCN(C)C)cc1)c1ccccc1 [tamoxifen],activity in proliferation tests,MCF-7 cells,no activity
B1,amount of PR (Western blot),[5],distinct decrease in PR
